Test results from US8664257B2, “Oxygen-substituted 3-heteroaroylamino-propionic acid derivatives and their use as pharmaceuticals” (Sanofi, priority 2010, dated 2014).
pIC50: −log10 of the molar value.

molecular target: T1, Recombinant human cathepsin A (Homo sapiens, UniProt P10619); experiment: Cathepsin A inhibitory activity; format: biochemical; conditions: pharmacological test "Cathepsin A inhibitory activity"; IC50 given as class A/B/C; read-out: Activity (2): Cathepsin A inhibitory activity, IC50 class
T1 construct: Recombinant human cathepsin A (residues 29-480, with a C-terminal 10-His tag); 10-His (C); purchased R&D Systems 1049-SE
T1 sequence (P10619 29-312 limits assumed): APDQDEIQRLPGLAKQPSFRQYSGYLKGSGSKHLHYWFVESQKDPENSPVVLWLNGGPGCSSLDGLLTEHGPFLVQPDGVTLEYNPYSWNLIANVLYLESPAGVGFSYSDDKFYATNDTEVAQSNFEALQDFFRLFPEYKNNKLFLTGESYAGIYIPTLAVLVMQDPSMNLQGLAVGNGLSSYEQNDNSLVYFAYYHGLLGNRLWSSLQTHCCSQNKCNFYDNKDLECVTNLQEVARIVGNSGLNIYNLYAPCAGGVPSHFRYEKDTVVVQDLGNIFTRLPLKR
T1 sequence (P10619 327-480 limits assumed): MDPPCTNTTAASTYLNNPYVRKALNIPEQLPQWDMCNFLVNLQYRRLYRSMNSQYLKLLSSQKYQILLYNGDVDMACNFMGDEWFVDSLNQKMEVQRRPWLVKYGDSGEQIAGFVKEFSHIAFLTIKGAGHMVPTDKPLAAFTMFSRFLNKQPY
Procedure, shortened: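 Read-out was microfluidic separation of cleaved vs. uncleaved Bodipy FL-bradykinin (2 μM), giving turnover, % inhibition and IC50. Compound and 833 ng/ml enzyme met for 15 min RT in pH 5.5 MES/DTT before substrate (15 min RT). The 29-480 His-tagged human enzyme was first activated by cathepsin L, then E-64 (10 μM).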

SMILES | pIC50
COc1cccc([C@H](CC(=O)O)NC(=O)c2cc(O)n(-c3ccccc3)n2)c1OC [Example 170] | 6.00 to 7.00
O=C(O)CC(NC(=O)c1cc(O)n(-c2ccccc2F)n1)c1cccc(C(F)(F)F)c1 (stereo not shown) [Example 231] | 6.00 to 7.00
O=C(O)C[C@H](NC(=O)c1cc(O)n(-c2ccc(F)cc2F)n1)c1cccc(Cl)c1Cl [Example 181] | > 7.00

Results, then the compound that gave them:

pIC50 | SMILES
6.00 to 7.00 | Cc1cc(F)ccc1C(CC(=O)O)NC(=O)c1cc(O)n(-c2ccccc2F)n1 (stereo not shown) [Example 248]
6.00 to 7.00 | COc1cccc([C@H](CC(=O)O)NC(=O)c2cc(O)n(-c3ccccc3F)n2)c1 [Example 237]
4.52 to 6.00 | Cc1ccccc1[C@H](CC(=O)O)NC(=O)c1cc(O)n(-c2ccncc2)n1 [Example 141]

same assay, conditions: read-out: Activity (2): Cathepsin A inhibitory activity (IC50 class)

SMILES | pIC50
COc1ccc(-c2ccccc2)cc1C(CC(=O)O)NC(=O)c1cc(O)n(-c2ccccc2F)n1 (stereo not shown) [Example 556, 3-{[1-(2-Fluoro-phenyl)-5-hydroxy-1H-pyrazole-3-carbonyl]-amino}-3-(4-methoxy-biphenyl-3-yl)-propionic acid] | 4.52 to 6.00
Cc1ccccc1[C@H](CC(=O)O)NC(=O)c1cc(OCC(=O)C(C)(C)C)n(-c2ccccc2F)n1 [Example 700, (S)-3-{[5-(3,3-Dimethyl-2-oxo-butoxy)-1-(2-fluoro-phenyl)-1H-pyrazole-3-carbonyl]-amino}-3-o-tolyl-propionic acid] | > 7.00
Cc1ccc([C@H](CC(=O)O)NC(=O)c2cc(OCC(C)(O)C(C)C)n(-c3ccccc3F)n2)cc1 (stereo partly drawn) [Example 787, (S)-3-{[1-(2-Fluoro-phenyl)-5-(2-hydroxy-2,3-dimethyl-butoxy)-1H-pyrazole-3-carbonyl]-amino}-3-p-tolyl-propionic acid] | > 7.00
Cc1ccccc1[C@H](CC(=O)O)NC(=O)c1cc(OC[C@@H](O)C(C)(C)C)n(-c2ccccc2F)n1 [Example 746, (S)-3-{[1-(2-Fluoro-phenyl)-5-((S)-2-hydroxy-3,3-dimethyl-butoxy)-1H-pyrazole-3-carbonyl]-amino}-3-o-tolyl-propionic acid] | > 7.00
CS(=O)(=O)c1ccc(C(CC(=O)O)NC(=O)c2cc(O)n(-c3ccccc3F)n2)cc1 (stereo not shown) [Example 603, 3-{[1-(2-Fluoro-phenyl)-5-hydroxy-1H-pyrazole-3-carbonyl]-amino}-3-(4-methanesulfonyl-phenyl)-propionic acid] | 4.52 to 6.00
CC(C)(C)[C@@](C)(O)COc1cc(C(=O)N[C@@H](CC(=O)O)c2cccc(Cl)c2)nn1-c1ccccc1F [Example 774, (S)-3-(3-Chloro-phenyl)-3-{[1-(2-fluoro-phenyl)-5-((R)-2-hydroxy-2,3,3-trimethyl-butoxy)-1H-pyrazole-3-carbonyl]-amino}-propionic acid] | > 7.00
O=C(O)CC(NC(=O)c1cc(O)n(-c2ccccc2Cl)n1)c1ccc(-c2ccc(C(F)(F)F)cc2)cc1 (stereo not shown) [Example 581] | 4.52 to 6.00
O=C(O)CC(NC(=O)c1cc(O)n(-c2ccccc2C(F)(F)F)n1)c1ccc(-c2ccc(F)cc2)cc1 (stereo not shown) [Example 569] | 6.00 to 7.00
O=C(O)CC(NC(=O)c1cc(O)n(-c2ccccc2F)n1)c1ccc(-c2cccc(Cl)c2)cc1 (stereo not shown) [Example 541] | 6.00 to 7.00

Next, values leading:

pIC50 | SMILES
6.00 to 7.00 | COc1cccc([C@H](CC(=O)O)NC(=O)c2cc(OC)n(-c3ccccc3F)n2)c1 [Example 669]
6.00 to 7.00 | O=C(O)CC(NC(=O)c1cc(OCC2CC2)n(-c2ccccc2F)n1)c1ccc(F)cc1 (stereo not shown) [Example 698]
> 7.00 | CCOc1cc(C(=O)NC(CC(=O)O)c2cccc(F)c2C)nn1-c1ccccc1F (stereo not shown) [Example 706]
> 7.00 | Cc1ccccc1[C@H](CC(=O)O)NC(=O)c1cc(OCC2CCOC2)n(-c2ccccc2F)n1 (stereo partly shown) [Example 650]
6.00 to 7.00 | O=C(O)C[C@H](NC(=O)c1cc(OCC2CC2)n(-c2ccccc2F)n1)c1ccccc1F [Example 699]
> 7.00 | Cc1ccccc1[C@H](CC(=O)O)NC(=O)c1cc(OCC2(C)COC2)n(-c2ccccc2F)n1 [Example 663]

same assay, conditions: read-out: Activity (2): Cathepsin A inhibitory activity, IC50 class

pIC50 | SMILES
4.52 to 6.00 | Cc1ccc(C)c(-n2nc(C(=O)NC(CC(=O)O)c3cccc(C(F)(F)F)c3)cc2O)c1 (stereo not shown) [Example 53]
6.00 to 7.00 | O=C(O)CC(NC(=O)c1cc(O)n(-c2cccc(F)c2)n1)c1ccc(-c2ccccc2)cc1 (stereo not shown) [Example 327]
4.52 to 6.00 | O=C(O)CC(NC(=O)c1cc(O)n(-c2ccc(Cl)cc2)n1)c1cccc(Cl)c1F (stereo not shown) [Example 288]
6.00 to 7.00 | O=C(O)C[C@H](NC(=O)c1cc(O)n(-c2ccccc2Cl)n1)c1c(F)cccc1F [Example 114]
6.00 to 7.00 | O=C(O)C[C@H](NC(=O)c1cc(O)n(-c2ccccc2)n1)c1c(F)cccc1F [Example 103]

SMILES | pIC50
COc1ccc([C@H](CC(=O)O)NC(=O)c2cc(OC[C@](C)(O)C(C)C)n(-c3ccccc3F)n2)cc1 [Example 850, (S)-3-{[1-(2-Fluoro-phenyl)-5-((R)-2-hydroxy-2,3-dimethyl-butoxy)-1H-pyrazole-3-carbonyl]-amino}-3-(4-methoxy-phenyl)-propionic acid] | > 7.00
CC(C)C(C)(O)COc1cc(C(=O)N[C@H](CC(=O)O)Cc2ccccc2)nn1-c1ccccc1F (stereo partly drawn) [Example 838, (S)-3-{[1-(2-Fluoro-phenyl)-5-(2-hydroxy-2,3-dimethyl-butoxy)-1H-pyrazole-3-carbonyl]-amino}-4-phenyl-butyric acid] | 4.52 to 6.00
COc1ccccc1[C@H](CC(=O)O)NC(=O)c1cc(OCC(C)(O)C(C)C)n(-c2ccccc2F)n1 (stereo partly drawn) [Example 811, (S)-3-{[1-(2-Fluoro-phenyl)-5-(2-hydroxy-2,3-dimethyl-butoxy)-1H-pyrazole-3-carbonyl]-amino}-3-(2-methoxy-phenyl)-propionic acid] | > 7.00

same assay, conditions: recombinant human cathepsin A 833 ng/ml, Bodipy FL-labeled bradykinin 2 μM, pH 5.5; read-out: CATH-A IC50

pIC50 | SMILES
6.71 | O=C(O)CC(NC(=O)c1cc(O)n(-c2cccc(Cl)c2)n1)c1ccc(-c2ccccn2)cc1 (stereo not shown) [Example 513, 3-{[1-(3-Chloro-phenyl)-5-hydroxy-1H-pyrazole-3-carbonyl]-amino}-3-(4-pyridin-2-yl-phenyl)-propionic acid]
5.06 | COc1ccc(-c2ccccc2)cc1C(CC(=O)O)NC(=O)c1cc(O)n(-c2ccccc2F)n1 (stereo not shown) [Example 556, 3-{[1-(2-Fluoro-phenyl)-5-hydroxy-1H-pyrazole-3-carbonyl]-amino}-3-(4-methoxy-biphenyl-3-yl)-propionic acid]
6.66 | O=C(O)CC(NC(=O)c1cc(O)n(-c2ccccc2)n1)c1cc(F)ccc1C(F)(F)F (stereo not shown) [Example 443, 3-(5-Fluoro-2-trifluoromethyl-phenyl)-3-[(5-hydroxy-1-phenyl-1H-pyrazole-3-carbonyl)-amino]-propionic acid]

same assay, conditions: recombinant human cathepsin A; read-out: Activity (2): Cathepsin A inhibitory activity, IC50 class

SMILES | pIC50
O=C(O)CC(NC(=O)c1cc(O)n(-c2cccc(Cl)c2)n1)c1ccc(-c2ccccn2)cc1 (stereo not shown) [Example 513, 3-{[1-(3-Chloro-phenyl)-5-hydroxy-1H-pyrazole-3-carbonyl]-amino}-3-(4-pyridin-2-yl-phenyl)-propionic acid] | 6.00 to 7.00
O=C(O)CC(NC(=O)c1cc(O)n(-c2ccccc2)n1)c1cc(F)ccc1C(F)(F)F (stereo not shown) [Example 443, 3-(5-Fluoro-2-trifluoromethyl-phenyl)-3-[(5-hydroxy-1-phenyl-1H-pyrazole-3-carbonyl)-amino]-propionic acid] | 6.00 to 7.00
O=C(O)CC(NC(=O)c1cc(O)n(-c2cccc(F)c2)n1)c1cc(Cl)ccc1Cl (stereo not shown) [Example 488] | 6.00 to 7.00
O=C(O)C[C@H](NC(=O)c1cc(O)n(-c2cccc(F)c2)n1)c1ccccc1F [Example 433] | 6.00 to 7.00

Now from value to compound:

pIC50 | SMILES
> 7.00 | Cc1ccc(F)cc1C(CC(=O)O)NC(=O)c1cc(O)n(-c2ccccc2F)n1 (stereo not shown) [Example 478]
> 7.00 | COc1cc(C(=O)N[C@@H](CC(=O)NC[C@@H]2CCCO2)c2ccccc2C)nn1-c1ccccc1F [Example 938, 1-(2-Fluoro-phenyl)-5-methoxy-1H-pyrazole-3-carboxylic acid ((S)-2-{[(S)-1-(tetrahydro-furan-2-yl)methyl]-carbamoyl}-1-o-tolyl-ethyl)-amide]
6.00 to 7.00 | Cc1ccccc1[C@H](CC(=O)O)NC(=O)c1cc(O)n(-c2ccccc2C(F)(F)F)n1 [Example 537]
4.52 to 6.00 | COc1cc(C(=O)N[C@@H](CC(=O)NCC(C)C)c2ccccc2C)nn1-c1ccccc1F [Example 919, 1-(2-Fluoro-phenyl)-5-methoxy-1H-pyrazole-3-carboxylic acid ((S)-2-isobutylcarbamoyl-1-o-tolyl-ethyl)-amide]
